Data set [1] is described as follows: Absorption spectra, absorption maximum. In kind it is physicochemical. The conditions noted are these: dye in water. As to the method:
Absorption spectra in a wavelength range of 700 nm to 900 nm were recorded with a UVIKON 933 Spectrophotometer (company Kontron) in the various solvents. →ICG in water λmax=780 nm ICO micelles λmax=797 nm (FIG. 1A)
Absorption spectra were recorded in a wavelength range of 600 nm to 900 nm with a DU®530 Beckman Spectralphotometer in the various solvents. →ICG in water λmax=779 nm ICG-Cithrol 10 MS micelles λmax=800 nm (FIG. 2A)
Absorption spectra were recorded in a wavelength range of 600 nm to 900 nm with a DU®530 Beckman Spectralphotometer in the various solvents. →ICG in water λmax=779 nm ICG-Crodet S40 LD micelles λmax=800 nm (FIG. 3A)
(§1) Absorption spectra were recorded in a wavelength range of 600 nm to 900 nm with a DU®530 Beckman Spectralphotometer in the various solvents. […]
as §1
Absorption spectra were recorded in a wavelength range of 600 nm to 900 nm with a DU®530 Beckman Spectralphotometer in the various solvents. →NW003.5 in water λmax (monomer)=788 nm NW003.5-Solutol® HS 15 micelles λmax=806 nm (FIG. 6B)
Absorption spectra were recorded in a wavelength range of 600 nm to 900 nm with a DU®530 Beckman Spectra'photometer in the various solvents. →IR-783 in water λmax (Monomer)=775 nm IR-783-Solutol® HS 15 micelles λmax=797 nm (FIG. 7B)

The nature of data set [2]: Fluorescence measurements, quantum yield. In kind it is physicochemical. The settings on record: in water; standard ICG in DMSO. The procedure: Fluorescence measurements were carried out by means of a FluoroLog-2 Spectrofluorometer (350 W Xenon lamp) of the company Spex. For this purpose, emission spectra of 700 nm to 900 nm were recorded. The excitation wavelength corresponded to the respective maximum of the formulation in the absorption spectrum (ICG in water λmax=780 nm and ICG micelles λmax=795 nm). Due to the s & r modus of the software DM 3000, the different lamp intensities of the different excitation wavelengths could be taken into account in the evaluation.
The quantum yield is calculated via the surface area below the emission curve. ICG in DMSO was used as the standard (Φ=0.13).
(§2) Fluorescence measurements were carried out by means of a Spectrofluorometer FP-6500 of the company JASCO. For this purpose, emission spectra of 770 to 900 nm were recorded. […] The quantum yield is calculated via the surface area below the emission curve. […]
as §2, §2

The nature of data set [3]: Stability test, absorption as a function of time. The class given is physicochemical. The conditions noted are these: purely aqueous formulation, 0.0005% ICG, room temperature, 7 days. The procedure: For the stability test the absorption in the maximum of the various formulations was measured as a function of time. For this purpose, 0.0005% ICG solutions were prepared and stored at room temperature.
For the stability test the absorption spectra of the various formulations were measured as a function of time.

The conditions of data set [4]: in DMSO, used as the standard; cited from earlier work.
The next data set deals with plasma protein. Put plainly: Plasma protein binding by wavelength shift in the absorption spectrum. The class given is in vitro ADME. The source says:
For this purpose, spectra of 700 nm to 900 nm of ICG in water and in plasma were compared with spectra of ICG micelles in water and in plasma.

This is an account of results in US9821077B2, “Diagnostic substances for optical imaging testing on the basis of nanoparticular formulations” (NANOPET PHARMA GMBH, priority 2007, dated 2017).

Where “and” joins values, the source holds several entries; their conditions need not be identical. Identical values can stand only once.

With `CC1(C)C(=CC=C2CCCC(C=CC3=[N+](CCCCS(=O)(=O)[O-])c4ccccc4C3(C)C)=C2Cl)N(CCCCS(=O)(=O)[O-])c2ccccc21.[Na+]` [IR-783], the “absorption maximum λmax” value in data set [1] was determined as 775 nm.

Consider `CC1(C)C(/C=C/C=C/C=C/C=C2\N(CCCCS(=O)(=O)O)c3ccc4ccccc4c3C2(C)C)=[N+](CCCCS(=O)(=O)[O-])c2ccc3ccccc3c21` [ICG, indocyanine green], for which, in data set [2], the “fluorescence quantum yield Φ” value is 0.02. Also, in data set [3], the “standardized absorption after storage” value is listed as “below 10%”. Besides, the “fluorescence quantum yield Φ of the standard” value in data set [4] is 0.12 and 0.13. In addition, the “absorption maximum λmax” value in data set [1] is 779 nm and 780 nm. For the same compound, the “absorption maximum in plasma” value with plasma protein is 805 nm.
